Measured values reported in ChEMBL document CHEMBL5050844 (2019).

Key:
[1] = biological target: E3 ubiquitin-protein ligase CBL-B (Homo sapiens, UniProt Q13191); test: Inhibition of N-terminal Avi-tagged human CBL-B (36 to 427 residues) incubated with 60 nM Src kinase for 1.5 hrs followed by incubation with fluorescently labeled UbcH5B-Ub for 1 hr and measured by TR-FRET assay; type: single protein
[2] = Induction of anti-CD3/CD28 antibodies-stimulated human T cell activation at 1 uM assessed fold increase in IL-2 secretion measured by ELISA assay; type: functional, T cell line
[3] = Induction of anti-CD3 antibodies-stimulated human T cell activation at 1 uM assessed fold increase in CD25 expression measured by ELISA assay; type: functional, T cell line; note: reference of the scale not given here
[4] = Induction of anti-CD3/CD28 antibodies-stimulated human T cell activation at 0.3 uM assessed fold increase in CD25 expression measured by ELISA assay; type: functional, T cell line
[5] = Induction of anti-CD3 antibodies-stimulated human T cell activation at 1 uM assessed fold increase in IL-2 secretion measured by ELISA assay; type: functional, T cell line; note: reference of the scale not given here
[6] = Induction of anti-CD3/CD28 antibodies-stimulated human T cell activation at 0.3 uM assessed fold increase in IL-2 secretion measured by ELISA assay; type: functional, T cell line
[7] = Induction of anti-CD3/CD28 antibodies-stimulated human T cell activation at 1 uM assessed fold increase in CD25 expression measured by ELISA assay; type: functional, T cell line

Chain of E3 ubiquitin-protein ligase CBL-B (Q13191 whole entry, the tested form may be a part): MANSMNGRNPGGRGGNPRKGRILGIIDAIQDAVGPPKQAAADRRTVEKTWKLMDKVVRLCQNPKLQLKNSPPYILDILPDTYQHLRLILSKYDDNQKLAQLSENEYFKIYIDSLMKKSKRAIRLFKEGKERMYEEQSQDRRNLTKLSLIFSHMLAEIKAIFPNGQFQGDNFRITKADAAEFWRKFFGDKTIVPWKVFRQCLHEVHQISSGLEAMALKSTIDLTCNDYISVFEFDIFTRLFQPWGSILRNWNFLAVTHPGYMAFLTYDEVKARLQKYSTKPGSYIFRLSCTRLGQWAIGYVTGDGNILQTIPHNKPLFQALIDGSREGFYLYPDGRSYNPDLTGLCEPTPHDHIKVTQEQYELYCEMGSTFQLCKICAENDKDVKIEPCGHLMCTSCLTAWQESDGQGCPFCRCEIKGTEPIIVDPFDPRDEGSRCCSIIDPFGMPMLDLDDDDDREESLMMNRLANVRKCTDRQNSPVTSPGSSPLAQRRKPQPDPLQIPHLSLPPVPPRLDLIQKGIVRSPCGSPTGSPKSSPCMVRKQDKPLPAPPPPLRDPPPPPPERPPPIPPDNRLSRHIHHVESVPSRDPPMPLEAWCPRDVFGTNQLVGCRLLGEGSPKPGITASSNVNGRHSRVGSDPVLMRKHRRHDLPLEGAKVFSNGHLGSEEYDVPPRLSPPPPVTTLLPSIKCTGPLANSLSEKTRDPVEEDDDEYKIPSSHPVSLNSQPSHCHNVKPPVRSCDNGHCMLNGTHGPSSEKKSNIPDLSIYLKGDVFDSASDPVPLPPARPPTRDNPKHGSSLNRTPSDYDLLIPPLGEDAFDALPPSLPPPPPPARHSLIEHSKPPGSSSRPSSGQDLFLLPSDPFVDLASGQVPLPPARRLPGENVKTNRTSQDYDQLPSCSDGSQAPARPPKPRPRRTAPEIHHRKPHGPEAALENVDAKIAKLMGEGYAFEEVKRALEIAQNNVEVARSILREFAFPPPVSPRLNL

| Compound | IC50 [1] | fold change (FC) [2] | fold change (FC) [3] | fold change (FC) [4] | fold change (FC) [5] | fold change (FC) [6] | fold change (FC) [7] | also measured |
| --- | --- | --- | --- | --- | --- | --- | --- | --- |
| Cn1cnnc1CC1(c2cccc(NC(=O)c3nc(C(F)(F)F)cs3)c2)COC1 |  | 2.51 | 0.601 | 1.01 | <=0.05 | 1.01 | 1.01 |  |
| Cn1cnnc1CC1(c2cccc(N3Cc4c(cc(C(F)(F)C(=O)O)cc4C(F)(F)F)C3=O)c2)COC1 |  | 1.01 | 0.601 | 1.01 | <=0.05 | 1.01 | 1.01 |  |
| Cn1cnnc1CC1(c2cccc(N3Cc4c(cc(CN5CC6CC(C5)C6(F)F)cc4C(F)(F)F)C3=O)c2)COC1 | < 100 nM |  |  |  |  |  |  |  |
| CN(c1cc2c(c(C(F)(F)F)c1)CN(c1cccc([C@@](C)(F)C(F)(F)c3nncn3C)c1)C2=O)[C@H]1CNC[C@H]1F |  | 2.51 | 0.801 | 1.01 | 0.151 | 1.01 | 1.31 |  |
| Cn1cnnc1-c1cnn(C)c1-c1cccc(N2Cc3c(cccc3C(F)(F)F)C2=O)c1 |  | 1.01 | 0.601 | 1.01 | 0.051 | 1.01 | 1.01 |  |
| Cn1cnnc1CC1(c2cccc(NC(=O)c3csc(C4CC4)n3)c2)COC1 |  | 1.01 | 0.601 | 1.01 | 0.051 | 1.01 | 1.01 |  |
| C[C@H](Cc1nncn1C)c1cc(C2CCOCC2)nc(N2Cc3c(cccc3C(F)(F)F)C2=O)c1 |  | 1.01 | <=0.6 | 1.01 | <=0.05 | 1.01 | 1.01 |  |
| Cn1cnnc1CC1(c2cccc(N3Cc4c(ccc(F)c4C4CC4)C3=O)c2)COC1 |  | 1.01 | 0.601 | 1.01 | 0.051 | 1.01 | 1.01 |  |
| Cn1cnnc1OC1(c2cccc(N3Cc4c(cc(CN5CCC(F)CC5)cc4C(F)(F)F)C3=O)c2)COC1 |  | 2.51 | 0.601 | 1.01 | <=0.05 | 1.01 | 1.31 |  |
| Cc1cc(C(=O)Nc2cccc(C3(Cc4nncn4C(F)F)COC3)c2)nc(C2CC2)n1 | < 100 nM |  |  |  |  |  |  |  |
| Cn1cnnc1[C@@H](F)C1(c2cccc(N3Cc4c(cc(CN5C6CCCC5CC6)cc4C(F)(F)F)C3=O)c2)COC1 (stereo in doubt; 675a) |  |  |  |  |  |  |  | fold change (FC) ([3]; 1 µM): >=1.001; fold change (FC) ([4]; 0.3 µM): 1.01; fold change (FC) ([5]; 1 µM): 0.101; fold change (FC) ([7]; 1 µM): 1.31 |
| C[C@H](Sc1nncn1C)c1cccc(NC(=O)c2cc(C(=O)N3CCC[C@H]3C)ccn2)c1 | > 10000 nM |  |  |  |  |  |  |  |
| CC(c1cc(C(=O)Nc2cccc(C3(Cc4nncn4C)COC3)c2)nc(C2CC2)n1)N1CCC2(CC2)C1 (single isomer, unassigned; 592b) | < 100 nM |  |  |  |  |  |  |  |
| C[C@H](Sc1nncn1C)c1cccc(NC(=O)c2cccc(N(C)C)c2)c1 | > 10000 nM |  |  |  |  |  |  |  |
| Cn1cnnc1[C@H](F)C1(c2cccc(N3Cc4c(cc(CN5C6CCCC5CC6)cc4C(F)(F)F)C3=O)c2)COC1 (stereo in doubt; 675b) |  |  |  |  |  |  |  | fold change (FC) ([4]; 0.3 µM): 1.31; fold change (FC) ([7]; 1 µM): 1.31 |
| Cc1cnn2c(C(=O)Nc3cccc(C4(Cc5nncn5C)COC4)c3)cc(C(F)(F)F)nc12 |  | 1.01 | 0.601 | 1.01 | <=0.05 | <=1 | 1.01 |  |
| Cn1cnnc1CC1(c2cccc(N3Cc4c(cc(C5=CN6CCC5CC6)cc4C(F)(F)F)C3=O)c2)COC1 |  | 2.51 | 0.601 | 1.01 | <=0.05 | 1.01 | 1.01 |  |
| Cc1cc(C(=O)Nc2cccc(-c3c(-c4nncn4C)cnn3C)c2)nc(C2CC2)n1 |  | 1.01 | 0.601 | 1.01 | 0.101 | 1.01 | 1.01 |  |
| C[C@H](Cc1nncn1C)c1cc(-c2cn[nH]c2)nc(N2Cc3c(cccc3C(F)(F)F)C2=O)c1 |  | <=1 | <=0.6 | <=1 | 0.051 | <=1 | <=1 |  |
| Cn1cnnc1CC1(c2cccc(NC(=O)c3nc(C4CC4)cs3)c2)COC1 |  | 1.01 | <=0.6 | 1.01 | <=0.05 | <=1 | 1.01 |  |
| Cc1cc(C(=O)Nc2cccc([C@]3(Cc4nncn4C)CCOC3)c2)nc(C2CC2)n1 (single isomer, unassigned) |  | 2.51 | 0.601 | 1.01 | 0.051 | 1.01 | 1.01 |  |
| C[C@H](Cc1nncn1C)c1cc(-c2cncs2)nc(N2Cc3c(cccc3C(F)(F)F)C2=O)c1 |  | 1.01 | <=0.6 | 1.01 | 0.051 | 1.01 | 1.01 |  |
| Cc1cc(C(=O)Nc2cccc(C3(Cc4nncn4C)COC3)c2)n2nccc2n1 |  | 1.01 | 0.601 | 1.01 | <=0.05 | 1.01 | 1.01 |  |
| Cc1cc(C(=O)Nc2cccc(C3(Cc4nncn4C)COC3)c2)n2nc(C(F)(F)F)cc2n1 |  | 1.01 | 0.601 | 1.01 | <=0.05 | 1.01 | 1.01 |  |
| C[C@H](Cc1nncn1C)c1cc(N2Cc3c(cccc3C(F)(F)F)C2=O)nc(C2(C)CC2)c1 |  | 1.01 | <=0.6 | 1.01 | 0.051 | 1.01 | 1.01 |  |
| CN(c1cc2c(c(C(F)(F)F)c1)CN(c1cccc([C@@](C)(F)C(F)(F)c3nncn3C)c1)C2=O)[C@@H]1CNC[C@@H]1F |  | 2.51 | 0.601 | 1.01 | 0.101 | 1.01 | 1.01 |  |
| Cn1cnnc1CC1(c2cccc(NC(=O)c3ccnc4ccnn34)c2)COC1 |  | 2.51 | 0.601 | 1.01 | <=0.05 | 1.01 | 1.01 |  |

The next lines start with results.

| IC50 [1] | Compound | fold change (FC) [2] | fold change (FC) [3] | fold change (FC) [4] | fold change (FC) [5] | fold change (FC) [6] | fold change (FC) [7] | also measured |
| --- | --- | --- | --- | --- | --- | --- | --- | --- |
| < 100 nM | CC(c1cc2c(c(C(F)(F)F)c1)CN(c1cccc(C3(C(F)(F)c4nncn4C)COC3)c1)C2=O)N1CC[C@H](F)C1 (stereo not given in full) |  |  |  |  |  |  |  |
| < 100 nM | Cn1cnnc1CC1(c2cccc(N3Cc4c(cc(CN5CCc6cccnc6C5)cc4C(F)(F)F)C3=O)c2)COC1 |  |  |  |  |  |  |  |
| < 100 nM | Cn1cnnc1CC1(c2cccc(N3Cc4c(cc(CN5CCOC(C(F)F)C5)cc4C(F)(F)F)C3=O)c2)COC1 (stereo not given) |  |  |  |  |  |  |  |
| < 100 nM | Cn1cnnc1CC1(c2cccc(N3Cc4c(cc(C(O)C(F)(F)F)cc4C(F)(F)F)C3=O)c2)COC1 (stereo not given) |  |  |  |  |  |  |  |
| < 100 nM | COc1ccc2c(c1)CN(Cc1cc3c(c(C(F)(F)F)c1)CN(c1cccc(C4(Cc5nncn5C)COC4)c1)C3=O)CC2 |  |  |  |  |  |  |  |
| < 100 nM | Cn1cnnc1CC1(c2cccc(N3Cc4c(cc(CN5CCC(F)CC5)cc4C4CC4)C3=O)c2)COC1 |  |  |  |  |  |  |  |
| < 100 nM | C[C@@H]1CCN(Cc2cc3c(c(C(F)(F)F)c2)CN(c2cccc(C4(Cc5nncn5C)COC4)c2)C3=O)C[C@@H]1F |  |  |  |  |  |  |  |
| < 100 nM | Cn1cnnc1CC1(c2cccc(N3Cc4c(cc(CN5CCO[C@H](CO)C5)cc4C(F)(F)F)C3=O)c2)COC1 |  |  |  |  |  |  |  |
| < 100 nM | Cn1cnnc1CC1(c2cccc(N3Cc4c(cc(CN5CCOC(CC(F)(F)F)C5)cc4C(F)(F)F)C3=O)c2)COC1 (stereo not given) |  |  |  |  |  |  |  |
| < 100 nM | Cn1cnnc1CC1(c2cccc(N3Cc4c(cc(CN5CCOC(C)(C)C5)cc4C(F)(F)F)C3=O)c2)COC1 |  |  |  |  |  |  |  |
| > 10000 nM | C[C@@H](Cc1n[nH]cc1CO)c1cccc(N2Cc3c(cccc3C(F)(F)F)C2=O)c1 |  |  |  |  |  |  |  |
| < 100 nM | CN1CC[C@H](O)C(Cc2cc3c(c(C(F)(F)F)c2)CN(c2cccc(C4(Cc5nncn5C)COC4)c2)C3=O)C1 (single isomer, unassigned) |  |  |  |  |  |  |  |
| < 100 nM | Cn1cnnc1CC1(c2cccc(N3Cc4c(cc(CN5CCc6ccncc6C5)cc4C(F)(F)F)C3=O)c2)COC1 |  |  |  |  |  |  |  |
| < 100 nM | Cn1cnnc1CC1(c2cccc(N3Cc4c(cc(CN5CCOC(C6CCC6)C5)cc4C(F)(F)F)C3=O)c2)COC1 (stereo not given) |  |  |  |  |  |  |  |
| < 100 nM | Cn1cnnc1CC1(c2cccc(N3Cc4c(cc(CN5CC[C@@H]6NCCO[C@@H]6C5)cc4C(F)(F)F)C3=O)c2)COC1 (relative stereo) |  |  |  |  |  |  |  |
| < 100 nM | Cn1cnnc1CC1(c2cccc(N3Cc4c(cc(CN5CCN6C(=O)CCC6C5)cc4C(F)(F)F)C3=O)c2)COC1 (stereo not given) |  |  |  |  |  |  |  |
| < 100 nM | C[C@H]1CCN(Cc2cc3c(c(C(F)(F)F)c2)CN(c2cccc(C4(Cc5nncn5C)COC4)c2)C3=O)C[C@H]1F |  |  |  |  |  |  |  |
| < 100 nM | CC(c1cc2c(c(C(F)(F)F)c1)CN(c1cccc(C3(Cc4nncn4C)COC3)c1)C2=O)n1ccnc1 (stereo not given) |  |  |  |  |  |  |  |
| < 100 nM | Cn1cnnc1CC1(c2cccc(N3Cc4c(cc(CN5CCOC(CF)C5)cc4C(F)(F)F)C3=O)c2)COC1 (stereo not given) |  |  |  |  |  |  |  |
